These are literature values, as cited in patent US20070065449A1 (priority 2005, published 2007).

Counter-ions that a name gives are not always drawn. Like-named read-outs stand apart in the source and are kept apart here.

Data set [1] concerns pretreated adult soft tissue sarcoma.
The subject of data set [2] is soft tissue sarcomas.
For data set [3], the system named is advanced soft tissue sarcomas.
Data set [4] deals with tubulin. As to conditions: read-out: concentration required to provide 50% inhibition of microtubule disassembly (IC50).
Test in data set [5]: not given
The source holds these as a separate data set.

For data set [6], the system named is soft tissue sarcomas. As to conditions: previously untreated patients; 95% CI 0.1, 29.
Data set [7] has as its system soft tissue sarcoma. To be noted: 29 evaluable patients, previously treated with chemotherapy.
In data set [8] the test system is soft tissue sarcoma. As to conditions: 27 evaluable patients, previously treated with chemotherapy.
The conditions of data set [9]: in vivo.
Test in data set [10]: not given
The source holds these as a separate data set.

Data set [11] deals with angiosarcoma of the scalp or face. As to conditions: four partial and four clinical complete responses.
Data set [12] deals with advanced soft tissue sarcomas. As to conditions: previously untreated advanced soft tissue sarcomas.
For data set [13], the system named is leiomyosarcoma of the uterus. To be noted: 48 evaluable patients.

For the compound `Nc1ccn([C@@H]2O[C@H](CO)[C@@H](O)C2(F)F)c(=O)n1` [gemcitabine], in [1] (15 assessable patients), the disease stabilization is reported as 47%. Besides, the “progression-free survival rate at 6 months” value in data set [1] (calculated, 95% CI 0, 30.5) was 13.3%. Further, the “progression-free survival rate at 3 months” value in [1] (calculated, 95% CI 21.4, 71.9) is on record as 46.7%. Further, in data set [1] (gemcitabine 1.0 g/m^2 days 1, 8, 15 every 4 weeks, 15 assessable patients), the remission rate is reported as 6%. In data set [1] (range 1-18+), the median progression-free survival is 3 months. Besides, the “hemolytic uremic syndrome (HUS)” value (6 of 2429 patients) is listed as 0.25%. Where the note is “human, in vivo”, the edema is 13%, the flu syndrome is on record as 19%, the generalized edema was under 1% and the “overall incidence of fever” value is on record as 41%. In addition, for the setting “human, in vivo”, the peripheral edema was 20%, the principal dose-limiting toxicity entry is “Myelosuppression” and the rash is given as 30%. The nausea and vomiting (usually mild to moderate severity) was 69%. Besides, in [2] (17 patients with GIST), the “objective responses in patients with GIST” value is reported as “no objective responses”. The “median duration of remission” value in [2] (in vivo) is 3.5 months. In addition, the remission rate in [2] (patients with soft tissue sarcomas) is listed as 18%. Besides, the “duration of a partial response in a patient” value in [3] (in vivo) is listed as 8 months. Besides, in data set [3] (previously untreated patients, 90% CI 0, 18), the rate of remissions is 4%.
As to `CC(=O)O[C@@]12CO[C@@H]1C[C@H](O)[C@@]1(C)C(=O)[C@H](O)C3=C(C)[C@@H](OC(=O)[C@H](O)[C@@H](NC(=O)OC(C)(C)C)c4ccccc4)C[C@@](O)([C@@H](OC(=O)c4ccccc4)[C@H]21)C3(C)C` [docetaxel], the IC50 in [4] was 200 nM. The “storage time of initial diluted solution” value in data set [5] (10 mg docetaxel/ml, refrigerator or room temperature) was at most 8 h. Also, the “stability of infusion solution” value in data set [5] (stored between 2 and 25° C.) is 4 h. Besides, the response rate in [6] was 5.9%. Moreover, the partial responses was 17% in data set [7] and 15% in [8]. The “major toxic effect which limits dose” value in data set [9] is on record as “neutropenia”.
As for `Nc1ccn([C@@H]2O[C@H](CO)[C@@H](O)C2(F)F)c(=O)n1` [Gemcitabine HCl, 2′-deoxy-2′,2′-difluorocytidine monohydrochloride ((beta)-isomer)], in data set [10], the “solubility in ethanol and polar organic solvents” value is given as “practically insoluble”; the solubility in methanol result is “slightly soluble”; the solubility in water entry is “soluble”.
For `CC(=O)O[C@H]1C(=O)[C@@]2(C)[C@H]([C@H](OC(=O)c3ccccc3)[C@]3(O)C[C@H](OC(=O)[C@H](O)[C@@H](NC(=O)c4ccccc4)c4ccccc4)C(C)=C1C3(C)C)[C@]1(OC(C)=O)CO[C@@H]1C[C@@H]2O` [paclitaxel], the IC50 in [4] was 400 nM. The patients responding entry in data set [11] is reported as “eight of nine”. In [12], the response rate was 12.5%. For the same compound, in [13], the “complete or partial response” value was 8.4% and the stable disease is recorded as 22.9%.
